Experimental data taken from patent publication EP1592418B1, “USE OF ENDOCANNABINOID-LIKE COMPOUNDS FOR TREATING CNS DEGENERATIVE DISORDERS” (Research & Innovation S.p.A., priority 2003, dated 2004).

What was measured:
[1] = Solubility (physico-chemical properties); format: physicochemical; details: for solubility: organic solvent or mixture, read-out: solubility in organic solvents
[2] = test system: Jurkat cells; assay: Evaluation of cellular viability by MTT assay; format: cell-based, human; details: for Growth inhibition (% of control): 10 µM, incubated 18-24 hr, MTT, absorbance 570 nm
Protocol: Jurkat, an acute T-lymphoblastic leukemia cell line generated from a person, have been used. Cell culture have been cultured in RPMI-1640 culture medium containing 10% FBS.
Jurkat cells were cultured at 1x10^5 cells/ml in RPMI 1640 medium supplemented with 10% fetal bovine serum (FBS), 2mM L-glutamine and 100 U/ml penicillin + 100 ug/ml streptomycin.
To detect drug effect in vitro, MTT [3-(4,5-dimethylthiazol-2-yl)-2,5-diphenyltetrazolium bromide] assay was used as described (Carmichael J et al., 1987 Cancer Res. 47, 936-42). Briefly, cells were seeded in triplicate on 96-well culture plates at a density of 20000 cells/well. The drugs were added in order to have the final concentration of 10 µM (1 µl of a solution of 10mM in DMSO) and incubated for 18-24 hr. Then MTT (0.5 mg/ml) was added to each well, and plates were incubated for an additional 1 to 3 hr in the dark at 37 °C. After this time the MTT solution was aspirated from the wells and 0.1 ml of DMSO was added. The plates were allowed to stand for 10 min, and then the absorbance was determined in a SpectraCount (Packard) microplate reader at 570 nm. The drug effect was determined by comparing absorbances of treated and untreated cells.

[3] = test system: reverse passive Arthus reaction, mouse ear pinna; assay: Reverse passive Arthus reaction (RPA) in the mouse ear pinna: oedema and Evans blue extravasation; format: in vivo; details: for Extravasation / Riduction % (extravasation): 10 mg/Kg i.p.; for Extravasation: Evans blue density at 620 nm in ear homogenate supernatant, Vehicle 0,90±0,06, Naïve 0,04±0,01; for Oedema (mg): 10 mg/Kg intraperitoneally 1 hour before induction, weight increase of 8 mm punch vs contralateral ear, three hours after antigen, Vehicle 49,8 ± 1,2, Naive 23,7 ± 1,2; for Riduction % (extravasation): reduction of extravasation versus Vehicle (0)
Excerpt: The Arthus model (RPA) is a model of immune-complex mediated tissue damage that involves the passive subcutaneous introduction of an antibody and the systemic administration of the corresponding antigen. This inflammatory model has been used to test the in vivo activity of the synthesised molecules.
The reverse passive Arthus reaction is induced, in the mouse ear pinna, by the subcutaneous injection of an excess of IgG anti human albumin followed by i.v. adiministration of the corresponding Ag (i.e. human albumin) together with Evans blue, 2 mg for each mouse, for the evaluation of extravasation.
The tested molecules were solubilised in DMSO, cremophor and PBS in a ratio of 1:1:18 and administered usually by intraperitonelly at the dosage of 10 mg/Kg 1 hour before the induction of anafilactic reaction. The animals were sacrificed 3 hours after the molecule administration.
The oedema and the extravasations are evaluated tree hours after the i.v. administration of the antigen. The oedema is evaluated as the increase of weight of lesioned ear area dissected by a 8 mm biopsy punch as compared to the contralateral unlesioned auricular tissues. The extravasation is measured determining the Evans blue density at 620 nm in the supernatants deriving from ear homogenates following centrifugation at 10000 x g for 20 min.

Row | Compound | solubility ([1]; in DMSO and in chloroform) [µg/mL] | solubility in water [1] | Growth inhibition (% of control) [2] | Extravasation ([3]; mouse ear) | Oedema (mg) ([3]; mouse ear) | Riduction % (extravasation) ([3]; mouse ear) | further results
1 | CCCCCC/C=C\CCCCCCCC(=O)NC(C)C [Example 3, N-Isopropyl-palmitoleyl amide] | > 10000 | scarcely soluble | 60.5 % of control | – | – | – | –
2 | CCCCCCCC/C=C\CCCCCCCC(=O)NC(C)C [Example 5, N-Isopropyl-oleyl amide] | > 10000 | scarcely soluble | 66.6 % of control | – | – | – | –
3 | CCCCCCCCCCCCCCCCCCCC(=O)NC(C)C [Example 6, N-Isopropyl-arachidyl amide] | > 10000 | scarcely soluble | 41.0 % of control | – | – | – | –
4 | CCCCCCCCCCCCCCCCCC(=O)NCCc1ccccc1 [Example 7, N-β-phenylethyl-stearoyl amide] | > 10000 | scarcely soluble | 47.3 % of control | – | – | – | –
5 | CCCCCCCCCCCCCCCC(=O)OCCC [Example 8, n-propyl-palmitate] | > 10000 | scarcely soluble | – | – | – | – | –
6 | CCCCCCCCCCCCCCCCCC(=O)OCCC [Example 9, n-propyl-stearate] | > 10000 | scarcely soluble | – | – | – | – | –
7 | CCCCCCCCCCCCCCCC(=O)OC(C)C [Example 10, iso-propyl-palmitate] | > 10000 | scarcely soluble | – | – | – | – | –
8 | CCCCCCCCCCCCCCCCCC(=O)OC(C)C [Example 11, iso-propyl-stearate] | > 10000 | scarcely soluble | – | – | – | – | –
9 | CCCCCCCCCCCCCCCCCCNC(C)=O [Example 13, N-octadecyl-acetyl-amide] | > 10000 | scarcely soluble | 67.2 % of control | 0,74±0,07 | 43,3 ± 0.6 mg | 17.2% | –
10 | CCCCCCCCCCCCCCCC(=O)NC1CCCC1 [Example 14, N-cyclopentyl-palmitoyl amide] | – | scarcely soluble | 52.6 % of control | – | – | – | Extravasation ([3]; mouse ear, 10 mg/kg): 0,52±0,06; Oedema (mg) ([3]; mouse ear, 10 mg/kg): 39,5 ± 0.8 mg; Riduction % (extravasation) ([3]; mouse ear, 10 mg/kg): 32.3%; solubility in organic solvents ([1]; in DMSO and in chloroform): >10 mg/ml in DMSO and in chloroform
11 | CCCCCCCCCCCCCCCCCC(=O)NC1CCCCC1 [Example 16, N-cyclohexyl-stearoyl amide] | > 10000 | scarcely soluble | 18.2 % of control | 0,66±0,09 | 48,2 ± 1.8 mg | 26,7% | –
12 | CCCCCCCCCCCCCCCC(=O)NCCC [Example 17, N-propyl-palmitoyl amide] | > 10000 | scarcely soluble | 21.4 % of control | 0,52±0,12 | 32,3 ± 2.7 mg | 32.3% | –
13 | CCCCCCCCCCCCCCCCCC(=O)NCCC [Example 18, N- propyl-stearoyl amide] | > 10000 | scarcely soluble | 17.3 % of control | 0,54±0,03 | 33,3 ± 0.2 mg | 40.0% | –
14 | CCCCCCCCCCCCCCCC(=O)NC1CC1 [Example 19, N-cyclopropyl-palmitoyl amide] | > 10000 | scarcely soluble | 56.2 % of control | 0,32±0,02 | 31,8 ± 3.6 mg | 64.6% | –
15 | CCCCCCCCCCCCCCCCCC(=O)NC1CC1 [Example 20, N-cyclopropyl-stearoyl amide] | > 10000 | scarcely soluble | 64.2 % of control | 0,35±0,06 | 33,1 ± 0.9 mg | 61.2% | –
16 | CCCCCCCCCCCCCCCC(=O)NCCCC [Example 23, N-butyl-palmitoyl amide] | > 10000 | scarcely soluble | 36.0 % of control | 0,59±0,08 | 35,2 ± 1.7 mg | 34.5% | –

Row | Compound | solubility ([1]; in DMSO and in chloroform) [µg/mL] | solubility in water [1] | Growth inhibition (% of control) [2] | Extravasation ([3]; mouse ear) | Oedema (mg) ([3]; mouse ear) | Riduction % (extravasation) ([3]; mouse ear) | further results
17 | CCCCCCCCCCCCCCCCCC(=O)NCCCC [Example 24, N- butyl-stearoyl amide] | > 10000 | scarcely soluble | 32.1 % of control | 0,55±0,07 | 33,6 ± 1.2 mg | 38.9% | –
18 | CCCCCCCCCCCCCCCCCC(=O)NCC(C)C [Example 26, N-isobutyl-stearoyl amide] | > 10000 | scarcely soluble | – | 0,81±0,05 | 40,3 ± 0.7 mg | 10.0% | –
19 | CCCCCCCCCCCCCCCCCC(=O)NC1CCC1 [Example 28, N-cyclobutyl-stearoyl amide] | > 10000 | scarcely soluble | 31.6 % of control | 0,31±0,12 | 40,6 ± 2.6 mg | 65.6% | –
20 | CCCCCCCCCCCCCCCC(=O)OCCCC [Example 29, n-butyl-palmitate] | > 10000 | scarcely soluble | – | – | – | – | –
21 | CCCCCCCCCCCCCCCCCC(=O)OCCCC [Example 30, n-butyl-stearate] | > 10000 | scarcely soluble | – | – | – | – | –
22 | CCCCCCCCCCCCCCCC(=O)OCC(C)C [Example 31, iso-butyl-palmitate] | > 10000 | scarcely soluble | – | – | – | – | –
23 | CCCCCCCCCCCCCCCCCC(=O)OCC(C)C [Example 32, iso-butyl-stearate] | > 10000 | scarcely soluble | – | – | – | – | –
24 | CCCCCCCCCCCCCCCC(=O)NCCCCC [Example 33, N-pentyl-palmitoyl amide] | > 10000 | scarcely soluble | 33.3 % of control | 0,72±0,06 | 43,9 ± 2.4 mg | 20.0% | –
25 | CCCCCCCCCCCCCCCC(=O)NC1CCCC1 [Example 37, N-cyclopentyl-palmitoyl amide] | > 10000 | scarcely soluble | 32.1 % of control | – | – | – | Extravasation ([3]; mouse ear, 10 mg/kg): 0,64±0,13; Oedema (mg) ([3]; mouse ear, 10 mg/kg): 36,2 ± 0.9 mg; Riduction % (extravasation) ([3]; mouse ear, 10 mg/kg): 52.5%
26 | CCCCCCCCCCCCCCCC(=O)OCCCCC [Example 39, n-pentyl-palmitate] | > 10000 | scarcely soluble | – | – | – | – | –
27 | CCCCCCCCCCCCCCCCCC(=O)OCCCCC [Example 40, n-pentyl-stearate] | > 10000 | scarcely soluble | – | – | – | – | –
28 | CCCCCCCCCCCCCCCC(=O)OC1CCCC1 [Example 41, cyclopentyl-palmitate] | > 10000 | scarcely soluble | – | – | – | – | –
29 | CCCC(C)(C)c1ccc2c(c1)OC(C)(C)[C@@H]1CC=C(C)C[C@@H]21 [JWH 133, reference compound] | – | – | 2.0 % of control | – | – | – | reduction of oedema in vivo (in words) ([3]; mouse ear): unable; reduction of extravasation in vivo (in words) ([3]; mouse ear, i.p.): unable; cellular death in vitro (in words) [2]: unable
30 | CCCCCCCC/C=C\CCCCCCCC(N)=O [Oleylamide] | – | – | 22.1 % of control | 0,65±0,12 | 43,5 ± 2.6 mg | 21.8% | –
31 | SR144528 [reference compound] | – | – | – | – | – | – | antagonism of the anti-inflammatory effect of cannabinoid, endocannabinoid or molecules object of the invention (in words) ([3]; CB2 selective antagonist): did not antagonize
